pIC50: −log10 of the molar value.
Columns and labels:
K-Ras G12D = target: T1, K-Ras G12D (Homo sapiens, UniProt P01116, G12D); test: HTRF resonance energy transfer assay, K-Ras G12D / SOS1 interaction; assay type: biochemical; details: HTRF assay of Example 5; read-out: IC50 against K-Ras G12D
T1 construct: made in house; host or cells: E. coli BL21 (DE3)
Outline: (§1)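 Read-out: HTRF 665/620 nm ratio (excitation 337 nm) after roughly 10 min or longer incubation, used to derive IC50. Donor anti-GST-Eu on GST-K-Ras; acceptor anti-6His-XL665 on His-hSOS1. Duplicate dose series from 10 μM down to 0.01 μM.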

K-Ras G12S = target: T2, K-Ras G12S (Homo sapiens, UniProt P01116, G12S); test: HTRF resonance energy transfer assay, K-Ras G12S / SOS1 interaction; assay type: biochemical; details: HTRF assay of Example 5; read-out: IC50 against K-Ras G12S
T2 construct: made in house; host or cells: E. coli BL21 (DE3)
T2 sequence (P01116 1-188 isoform P01116-2 G12S): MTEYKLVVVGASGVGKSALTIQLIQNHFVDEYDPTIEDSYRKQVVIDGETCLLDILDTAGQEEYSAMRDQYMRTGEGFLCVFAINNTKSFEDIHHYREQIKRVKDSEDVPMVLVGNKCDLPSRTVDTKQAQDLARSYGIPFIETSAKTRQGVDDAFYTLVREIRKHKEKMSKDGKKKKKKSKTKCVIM
Outline: as §1

K-Ras G12V = target: T3, K-Ras G12V (Homo sapiens, UniProt P01116, G12V); test: HTRF resonance energy transfer assay, K-Ras G12V / SOS1 interaction; assay type: biochemical; details: HTRF assay of Example 5; read-out: IC50 against K-Ras G12V
T3 construct: made in house; host or cells: E. coli BL21 (DE3)
T3 sequence (P01116 1-188 isoform P01116-2 G12V): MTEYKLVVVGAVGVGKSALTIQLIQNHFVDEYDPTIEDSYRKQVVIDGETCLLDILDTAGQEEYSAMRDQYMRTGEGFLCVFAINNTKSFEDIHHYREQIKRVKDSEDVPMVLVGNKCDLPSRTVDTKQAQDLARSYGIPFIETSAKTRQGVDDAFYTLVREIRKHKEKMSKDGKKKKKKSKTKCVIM
Outline: as §1

K-Ras WT = target: T4, K-Ras WT (Homo sapiens, UniProt P01116); test: HTRF resonance energy transfer assay, K-Ras WT / SOS1 interaction; assay type: biochemical; details: HTRF assay of Example 5; read-out: IC50 against K-Ras WT
T4 construct: made in house; host or cells: E. coli BL21 (DE3)
T4 sequence (P01116 1-188 isoform P01116-2): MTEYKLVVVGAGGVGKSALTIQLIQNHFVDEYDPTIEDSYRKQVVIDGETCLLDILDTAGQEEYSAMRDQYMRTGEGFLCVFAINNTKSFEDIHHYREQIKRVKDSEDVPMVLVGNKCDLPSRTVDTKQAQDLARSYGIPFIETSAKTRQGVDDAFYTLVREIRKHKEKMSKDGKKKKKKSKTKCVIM
Outline: as §1

GP2D cells = test: Ras cellular assay, growth of cells with K-Ras G12D mutation (CellTiter-Glo); assay type: cell-based; details: cell growth, Example 9, G12D mutation, read-out: IC50 against GP2D cells
SW620 cells = test: Ras cellular assay, growth of cells with K-Ras G12V mutation (CellTiter-Glo); assay type: cell-based; details: Homo sapiens, SW-620; cell growth, Example 9, G12V mutation; read-out: IC50 against SW620 cells
Outline: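 SW620 (K-Ras G12V) cells, e.g. 800/well in RPMI-1640 with 10% heat-inactivated FBS on standard or ultra-low attachment plates, were dosed the day after plating with e.g. a 10-point 3-fold series. Viability by CellTiter-Glo luminescence about 6 days later; IC50 from four-parameter fit.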

T1 sequence (P01116 1-188 isoform P01116-2 G12D): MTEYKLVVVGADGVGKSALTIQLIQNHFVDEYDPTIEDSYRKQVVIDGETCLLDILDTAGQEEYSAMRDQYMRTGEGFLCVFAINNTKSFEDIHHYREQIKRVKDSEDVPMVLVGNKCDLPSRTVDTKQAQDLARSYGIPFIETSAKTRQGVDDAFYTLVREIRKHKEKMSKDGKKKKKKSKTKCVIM

| pIC50 (K-Ras G12D) | pIC50 (K-Ras G12S) | pIC50 (K-Ras G12V) | pIC50 (K-Ras WT) | pIC50 (SW620 cells) | Structure (SMILES) | pIC50 (GP2D cells) |
| --- | --- | --- | --- | --- | --- | --- |
| > 7.00 | > 7.00 | > 7.00 | > 7.00 | > 5.30 | N#Cc1c(N)sc2c(F)ccc(-c3c(Cl)c4c5c(nc(OC[C@@]67CCCN6C[C@H](F)C7)nc5c3F)N(CCC(F)F)[C@@H](C3CC3)CO4)c12 [Compound 668, 2-amino-4-((S)-8-chloro-5-cyclopropyl-4-(3,3-difluoropropyl)-10-fluoro-2-(((2R,7aS)-2-fluorotetrahydro-1H-pyrrolizin-7a(5H)-yl)methoxy)-5,6-dihydro-4H-[1,4]oxazepino[5,6,7-de]quinazolin-9-yl)-7-fluorobenzo[b]thiophene-3-carbonitrile] | > 6.30 |
| > 7.00 | > 7.00 | > 7.00 | > 7.00 | > 5.30 | CC(C)(O)C1COc2c(Cl)c(-c3ccc(F)c4sc(N)c(C#N)c34)c(F)c3nc(OC[C@@]45CCCN4C[C@H](F)C5)nc(c23)N1CCC(F)F (stereo partly drawn) [Compound 1050, 2-amino-4-(8-chloro-4-(3,3-difluoropropyl)-10-fluoro-2-(((2R,7aS)-2-fluorotetrahydro-1H-pyrrolizin-7a(5H)-yl)methoxy)-5-(2-hydroxypropan-2-yl)-5,6-dihydro-4H-[1,4]oxazepino[5,6,7-de]quinazolin-9-yl)-7-fluorobenzo[b]thiophene-3-carbonitrile] | > 6.30 |
| > 7.00 | > 7.00 | > 7.00 | > 7.00 | > 5.30 | N#Cc1c(N)sc2c(F)ccc(-c3c(Cl)c4c5c(nc(OC[C@@]67CCCN6C[C@H](F)C7)nc5c3F)N([C@H]3CNC[C@H]3F)CCO4)c12 [Compound 1070, 2-amino-4-(8-chloro-10-fluoro-4-((3S,4R)-4-fluoropyrrolidin-3-yl)-2-(((2R,7aS)-2-fluorotetrahydro-1H-pyrrolizin-7a(5H)-yl)methoxy)-5,6-dihydro-4H-[1,4]oxazepino[5,6,7-de]quinazolin-9-yl)-7-fluorobenzo[b]thiophene-3-carbonitrile] | > 6.30 |
| > 7.00 | > 7.00 | > 7.00 | > 7.00 | > 5.30 | C[C@H](O)[C@H]1[C@H](C)Oc2c(Cl)c(-c3ccc(F)c4sc(N)c(C#N)c34)c(F)c3nc(OC[C@@]45CCCN4C[C@H](F)C5)nc(c23)N1CC(F)F [Compound 1042, 2-amino-4-((5S,6S)-8-chloro-4-(2,2-difluoroethyl)-10-fluoro-2-(((2R,7aS)-2-fluorotetrahydro-1H-pyrrolizin-7a(5H)-yl)methoxy)-5-((S)-1-hydroxyethyl)-6-methyl-5,6-dihydro-4H-[1,4]oxazepino[5,6,7-de]quinazolin-9-yl)-7-fluorobenzo[b]thiophene-3-carbonitrile] | > 6.30 |
| > 7.00 | > 7.00 | > 7.00 | > 7.00 | > 5.30 | N#Cc1c(N)sc2c(F)ccc(-c3c(Cl)c4c5c(nc(OC[C@@]67CCCN6C[C@H](F)C7)nc5c3F)N(CC(F)F)C(C3(F)CC3)CO4)c12 (stereo partly drawn) [Compound 943, 2-amino-4-(8-chloro-4-(2,2-difluoroethyl)-10-fluoro-5-(1-fluorocyclopropyl)-2-(((2R,7aS)-2-fluorotetrahydro-1H-pyrrolizin-7a(5H)-yl)methoxy)-5,6-dihydro-4H-[1,4]oxazepino[5,6,7-de]quinazolin-9-yl)-7-fluorobenzo[b]thiophene-3-carbonitrile] | > 6.30 |
| > 7.00 | > 7.00 | > 7.00 | > 7.00 | > 5.30 | N#Cc1c(N)sc2c(F)ccc(-c3c(Cl)c4c5c(nc(OC[C@@]67CCCN6C[C@H](F)C7)nc5c3F)N(C3CCCCC(O)C3)CCO4)c12 (stereo partly drawn) [Compound 795, 2-amino-4-(8-chloro-10-fluoro-2-(((2R,7aS)-2-fluorotetrahydro-1H-pyrrolizin-7a(5H)-yl)methoxy)-4-(3-hydroxycycloheptyl)-5,6-dihydro-4H-[1,4]oxazepino[5,6,7-de]quinazolin-9-yl)-7-fluorobenzo[b]thiophene-3-carbonitrile] | > 6.30 |
| > 7.00 | > 7.00 | > 7.00 | > 7.00 | > 5.30 | CN(C)C1(CN2CCOc3c(Cl)c(-c4ccc(F)c5sc(N)c(C#N)c45)c(F)c4nc(OC[C@@]56CCCN5C[C@H](F)C6)nc2c34)CCC1 [Compound 606, 2-amino-4-(8-chloro-4-((1-(dimethylamino)cyclobutyl)methyl)-10-fluoro-2-(((2R,7aS)-2-fluorotetrahydro-1H-pyrrolizin-7a(5H)-yl)methoxy)-5,6-dihydro-4H-[1,4]oxazepino[5,6,7-de]quinazolin-9-yl)-7-fluorobenzo[b]thiophene-3-carbonitrile] | > 6.30 |
| > 7.00 | > 7.00 | > 7.00 | > 7.00 | > 5.30 | COCCN1c2nc(OC[C@@]34CCCN3C[C@H](F)C4)nc3c(F)c(-c4ccc(F)c5sc(N)c(C#N)c45)c(Cl)c(c23)OC[C@@H]1CNC=O [Compound 607, N-(((5S)-9-(2-amino-3-cyano-7-fluorobenzo[b]thiophen-4-yl)-8-chloro-10-fluoro-2-(((2R,7aS)-2-fluorotetrahydro-1H-pyrrolizin-7a(5H)-yl)methoxy)-4-(2-methoxyethyl)-5,6-dihydro-4H-[1,4]oxazepino[5,6,7-de]quinazolin-5-yl)methyl)formamide] | > 6.30 |
| > 7.00 | > 7.00 | > 7.00 | > 7.00 | > 5.30 | N#Cc1c(N)sc2c(F)ccc(-c3c(Cl)c4c5c(nc(OC[C@@]67CCCN6C[C@H](F)C7)nc5c3F)N(CCC(F)F)[C@@H](C(F)F)CO4)c12 [Compound 1035, 2-amino-4-((R)-8-chloro-5-(difluoromethyl)-4-(3,3-difluoropropyl)-10-fluoro-2-(((2R,7aS)-2-fluorotetrahydro-1H-pyrrolizin-7a(5H)-yl)methoxy)-5,6-dihydro-4H-[1,4]oxazepino[5,6,7-de]quinazolin-9-yl)-7-fluorobenzo[b]thiophene-3-carbonitrile] | > 6.30 |
| > 7.00 | > 7.00 | > 7.00 | > 7.00 | > 5.30 | N#Cc1c(N)sc2c(F)ccc(-c3c(Cl)c4c5c(nc(OC[C@@]67CCCN6C[C@H](F)C7)nc5c3F)N(CC(F)F)CCO4)c12 [Compound 748, 2-amino-4-(8-chloro-4-(2,2-difluoroethyl)-10-fluoro-2-(((2R,7aS)-2-fluorotetrahydro-1H-pyrrolizin-7a(5H)-yl)methoxy)-5,6-dihydro-4H-[1,4]oxazepino[5,6,7-de]quinazolin-9-yl)-7-fluorobenzo[b]thiophene-3-carbonitrile] | > 6.30 |
| > 7.00 | > 7.00 | > 7.00 | > 7.00 | > 5.30 | N#Cc1c(N)sc2c(F)ccc(-c3c(Cl)c4c5c(nc(OC[C@@]67CCCN6C[C@H](F)C7)nc5c3F)N(C3CCOC3)[C@@H](C3(O)CC3)CO4)c12 (stereo partly drawn) [Compound 1031, 2-amino-4-((5R)-8-chloro-10-fluoro-2-(((2R,7aS)-2-fluorotetrahydro-1H-pyrrolizin-7a(5H)-yl)methoxy)-5-(1-hydroxycyclopropyl)-4-(tetrahydrofuran-3-yl)-5,6-dihydro-4H-[1,4]oxazepino[5,6,7-de]quinazolin-9-yl)-7-fluorobenzo[b]thiophene-3-carbonitrile] | > 6.30 |
| > 7.00 | > 7.00 | > 7.00 | > 7.00 | > 5.30 | C[C@@H]1C[C@@H](N2CCOc3c(Cl)c(-c4ccc(F)c5sc(N)c(C#N)c45)c(F)c4nc(OC[C@@]56CCCN5C[C@H](F)C6)nc2c34)CN1 [Compound 1016, 2-amino-4-(8-chloro-10-fluoro-2-(((2R,7aS)-2-fluorotetrahydro-1H-pyrrolizin-7a(5H)-yl)methoxy)-4-((3R,5R)-5-methylpyrrolidin-3-yl)-5,6-dihydro-4H-[1,4]oxazepino[5,6,7-de]quinazolin-9-yl)-7-fluorobenzo[b]thiophene-3-carbonitrile] | > 6.30 |
| > 7.00 | > 7.00 | > 7.00 | > 7.00 | > 5.30 | N#Cc1c(N)sc2c(F)ccc(-c3c(Cl)c4c5c(nc(OC[C@@]67CCCN6C[C@H](F)C7)nc5c3F)N[C@@H](C3(O)CC3)CO4)c12 [Compound 1076, 2-amino-4-((R)-8-chloro-10-fluoro-2-(((2R,7aS)-2-fluorotetrahydro-1H-pyrrolizin-7a(5H)-yl)methoxy)-5-(1-hydroxycyclopropyl)-5,6-dihydro-4H-[1,4]oxazepino[5,6,7-de]quinazolin-9-yl)-7-fluorobenzo[b]thiophene-3-carbonitrile] | > 6.30 |

— US12209102B2, “Heterocyclic compounds and uses thereof” (Kumquat Biosciences Inc., priority 2022, dated 2025)
